Assay results: patent US20260364184A1, “COMPOUND BASED ON OXOISOINDOLINYL-SUBSTITUTED TETRAHYDROPYRIMIDINE-DIONE AND USE THEREOF” (GLUETACS THERAPEUTICS (SHANGHAI) CO., LTD., priority 2023, published 2026)

What was measured:
[1] = molecular target: T1, CK1α (Homo sapiens, UniProt P48729+Q96SW2); assay: Western blot degradation of CK1α; type: cell-based; conditions: hPBMC Cell; 24 hours
T1 construct: expression of target proteins in cells; endogenous in cells
Description: (§1) Conventional Western blot assay was performed to evaluate the effects of the compounds of the present disclosure on the expression of target proteins in cells.
(§2) (1) Cell Seeding and Protein Harvesting: The selected cells were processed according to the cell seeding procedure and protein harvesting procedure in Table II-2.
(§3) (2) To the collected supernatant, 5×SDS sample loading buffer was added, followed by denaturation at 95 °C for 5 minutes. The denatured samples were then separated by SDS-PAGE electrophoresis on a polyacrylamide gel. Proteins were transferred to a nitrocellulose membrane (0.45 μm NC membrane), blocked with blocking buffer at room temperature for 1 hour, and subjected to antibody incubation and development procedures according to the antibody manufacturer's instructions (Cell Signaling Technology).
(§4) Half-Maximal Degradation Concentration value (the drug concentration required for degrading proteins by 50%, abbreviated as DC50) reads method: comparing the grayscale values of Western blot bands from drug-treated samples with those from blank DMSO-treated controls, and identifying the drug concentration range at which the grayscale value is half that of the DMSO-treated control bands.
(§5) DC50 values can be calculated using ImageJ software to measure grayscale values of Western blot bands from drug-treated samples. The concentration-response curve is fitted to estimate the drug concentration corresponding to half the grayscale value.
(§6) Target protein remaining (%) refers to the percentage of target protein remaining in cells after treatment with protein degrader compounds.
(§7) Calculation method for target protein remaining (%): Use ImageJ software to measure grayscale values of Western blot bands from drug (protein degrader)-treated samples. The grayscale value of drug-treated bands is divided by that of internal control protein bands, and the resulting quotient is normalized to obtain the relative percentage of remaining target protein after protein degrader treatment.
(§8) Target protein degradation rate (%)=1−target protein remaining (%).

[2] = molecular target: T2, IKZF3 (Homo sapiens, UniProt Q96SW2+Q9UKT9); assay: Western blot degradation of IKZF3; type: cell-based; conditions: hPBMC Cell; 24 hours
T2 construct: expression of target proteins in cells; endogenous in cells
Description: as §1, §2, §3, §4, §5, §6, §7, §8

[3] = molecular target: T3, IKZF1 (Homo sapiens, UniProt Q13422+Q96SW2); assay: Western blot degradation of IKZF1; type: cell-based; conditions: hPBMC Cell; 24 hours
T3 construct: expression of target proteins in cells; endogenous in cells
Description: as §1, §2, §3, §4, §5, §6, §7, §8

[4] = molecular target: T4, IKZF2 (Homo sapiens, UniProt Q96SW2+Q9UKS7); assay: Western blot degradation of IKZF2; type: cell-based; conditions: hPBMC Cell; 24 hours
T4 construct: expression of target proteins in cells; endogenous in cells
Description: as §1, §2, §3, §4, §5, §6, §7, §8

[5] = molecular target: T5, GSPT1 (Homo sapiens, UniProt P15170+Q96SW2); assay: Western blot degradation of GSPT1; type: cell-based; conditions: hPBMC Cell; 24 hours
T5 construct: expression of target proteins in cells; endogenous in cells
Description: as §1, §2, §3, §4, §5, §6, §7, §8

[6] = molecular target: T6, WEE1 (Homo sapiens, UniProt P30291+Q96SW2); assay: Western blot degradation of WEE1; type: cell-based; conditions: hPBMC Cell; 24 hours
T6 construct: expression of target proteins in cells; endogenous in cells
Description: as §1, §2, §3, §4, §5, §6, §7, §8

[7] = tested on: Human non-small cell lung cancer cell line NCI-H1975; assay: Inhibition of H1975 cell proliferation (CellTiter luminescent viability); type: cell-based; conditions: Table ID1, EGFR inhibitor-based; H1975, 96 hours; read-out: Inhibitory activity (IC50, nM) on tumor cell proliferation, H1975
Description: The tumor cells used herein were cultured in a cell culture medium listed in table 3 at 37 °C in an incubator with 5% CO2. Prior to experimentation, all cell lines used were correctly identified by STR profiling, and tested negative for mycoplasma contamination using a mycoplasma detection kit through routine screenings.
The IC50 values of the compounds of the present disclosure (including the compounds in Table 1, Table 2, and Examples 1-468) were determined using the CellTiter-Meiluncell Luminescent Cell Viability Assay Kit from Dalian Meilun Biotech Co., Ltd. The detailed procedure is as follows: Tumor cells were seeded in 96-well cell culture plates at the densities specified in Table 4. On the following day, the test compounds of the present disclosure were subjected to serial dilution. The dilution can be performed according to one of the following two methods: • (1) The first dilution method: The test compounds of the present disclosure (including the compounds in Table 1, Table 2, and Examples 1-468) were subjected to 5-fold serial dilutions starting from a highest concentration of 2000 μM, resulting in a total of 9 concentrations from high to low (2000, 400, 80, 16, 3.2, 0.64, 0.128, 0.0256, 0.00512 μM). Subsequently, 0.5 μL of the test compound dilution was transferred into the 96-well plate containing the cells, with each well containing 100 μL of cell culture medium. […] Into the 96-well plate, the diluted test compounds and corresponding detection reagents were added, resulting in final test compound concentrations of 500 nM and 10 nM, respectively. The experimental procedure is described below using the diluted 2 μM test compound as an example.
0.5 μL of the aforementioned diluted compound of the present disclosure (including the compounds in Table 1, Table 2, and Examples 1-468) was added to the seeded cells in 100 μL of medium, yielding a final test compound concentration of 10 nM. After the cells were treated with the compounds of the present disclosure for a specified period, the cell viability assay reagent was added to the culture medium according to the kit's instructions to determine cell viability. […] All controls were treated using the same procedure as the compounds of the present disclosure. The growth inhibition curves for the compounds of the present disclosure were plotted using Prism GraphPad software, and the IC50 values were calculated therefrom.

[8] = molecular target: T7, human Cereblon WT GST-tagged protein (CRBN) (Homo sapiens, UniProt Q96SW2); assay: CRBN binding by HTRF (Cereblon binding kit)
T7 construct: purchased CISBIO 64BDCRBNPEH
Summary of the method: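 GST-tagged human Cereblon WT was incubated 3 h at room temperature with compound, thalidomide-Re tracer and Eu anti-GST antibody. Final compound concentrations were 10 to 0.00064 µM (7 points) or 2 and 0.5 µM. Inhibition rate was calculated from HTRF 665/620 nm ratios versus solvent and blank controls.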

[9] = molecular target: T8, EGFR (Homo sapiens, UniProt P00533); assay: Western blot degradation of EGFR; type: cell-based; conditions: H1975 Cell; 24 hours
T8 construct: L858R/T790M in cis, heterozygous with wild type), Western blot
Summary of the method: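 Compound-treated cells harvested; lysates denatured 5 min at 95 °C, run on SDS-PAGE, blotted to NC membrane, blocked 1 h RT, probed with antibodies. Densitometry vs DMSO → DC50; target normalised to internal control → % remaining, degradation = 1 − remaining.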

T3 sequence (Q13422 whole entry): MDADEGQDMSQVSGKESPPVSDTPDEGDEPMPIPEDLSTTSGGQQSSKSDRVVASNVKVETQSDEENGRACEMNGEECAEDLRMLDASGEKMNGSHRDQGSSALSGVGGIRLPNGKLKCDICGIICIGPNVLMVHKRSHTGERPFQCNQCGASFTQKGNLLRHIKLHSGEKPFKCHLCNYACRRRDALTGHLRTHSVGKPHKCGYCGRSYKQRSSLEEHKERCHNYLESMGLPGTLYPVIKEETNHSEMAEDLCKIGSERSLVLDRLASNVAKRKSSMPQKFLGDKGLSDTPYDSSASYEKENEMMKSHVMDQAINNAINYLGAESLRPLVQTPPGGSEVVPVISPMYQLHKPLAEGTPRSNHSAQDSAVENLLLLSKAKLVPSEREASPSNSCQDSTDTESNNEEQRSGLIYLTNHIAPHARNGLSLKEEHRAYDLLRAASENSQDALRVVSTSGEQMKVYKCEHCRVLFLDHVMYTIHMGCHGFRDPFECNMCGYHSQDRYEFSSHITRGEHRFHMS
T3 sequence (Q96SW2 whole entry): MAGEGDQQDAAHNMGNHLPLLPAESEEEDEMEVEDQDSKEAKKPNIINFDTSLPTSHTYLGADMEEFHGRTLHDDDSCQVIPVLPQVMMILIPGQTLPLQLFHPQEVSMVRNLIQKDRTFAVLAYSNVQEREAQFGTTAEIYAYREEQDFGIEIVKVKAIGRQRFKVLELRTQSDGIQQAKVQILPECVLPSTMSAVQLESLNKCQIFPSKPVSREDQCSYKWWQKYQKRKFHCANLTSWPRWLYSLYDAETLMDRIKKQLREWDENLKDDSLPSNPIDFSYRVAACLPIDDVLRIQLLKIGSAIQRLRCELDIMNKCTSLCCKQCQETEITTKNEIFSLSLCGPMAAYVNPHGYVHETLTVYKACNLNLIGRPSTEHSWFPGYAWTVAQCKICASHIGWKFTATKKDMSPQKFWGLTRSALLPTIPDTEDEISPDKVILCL
T3 sequence (Q16531 whole entry partner): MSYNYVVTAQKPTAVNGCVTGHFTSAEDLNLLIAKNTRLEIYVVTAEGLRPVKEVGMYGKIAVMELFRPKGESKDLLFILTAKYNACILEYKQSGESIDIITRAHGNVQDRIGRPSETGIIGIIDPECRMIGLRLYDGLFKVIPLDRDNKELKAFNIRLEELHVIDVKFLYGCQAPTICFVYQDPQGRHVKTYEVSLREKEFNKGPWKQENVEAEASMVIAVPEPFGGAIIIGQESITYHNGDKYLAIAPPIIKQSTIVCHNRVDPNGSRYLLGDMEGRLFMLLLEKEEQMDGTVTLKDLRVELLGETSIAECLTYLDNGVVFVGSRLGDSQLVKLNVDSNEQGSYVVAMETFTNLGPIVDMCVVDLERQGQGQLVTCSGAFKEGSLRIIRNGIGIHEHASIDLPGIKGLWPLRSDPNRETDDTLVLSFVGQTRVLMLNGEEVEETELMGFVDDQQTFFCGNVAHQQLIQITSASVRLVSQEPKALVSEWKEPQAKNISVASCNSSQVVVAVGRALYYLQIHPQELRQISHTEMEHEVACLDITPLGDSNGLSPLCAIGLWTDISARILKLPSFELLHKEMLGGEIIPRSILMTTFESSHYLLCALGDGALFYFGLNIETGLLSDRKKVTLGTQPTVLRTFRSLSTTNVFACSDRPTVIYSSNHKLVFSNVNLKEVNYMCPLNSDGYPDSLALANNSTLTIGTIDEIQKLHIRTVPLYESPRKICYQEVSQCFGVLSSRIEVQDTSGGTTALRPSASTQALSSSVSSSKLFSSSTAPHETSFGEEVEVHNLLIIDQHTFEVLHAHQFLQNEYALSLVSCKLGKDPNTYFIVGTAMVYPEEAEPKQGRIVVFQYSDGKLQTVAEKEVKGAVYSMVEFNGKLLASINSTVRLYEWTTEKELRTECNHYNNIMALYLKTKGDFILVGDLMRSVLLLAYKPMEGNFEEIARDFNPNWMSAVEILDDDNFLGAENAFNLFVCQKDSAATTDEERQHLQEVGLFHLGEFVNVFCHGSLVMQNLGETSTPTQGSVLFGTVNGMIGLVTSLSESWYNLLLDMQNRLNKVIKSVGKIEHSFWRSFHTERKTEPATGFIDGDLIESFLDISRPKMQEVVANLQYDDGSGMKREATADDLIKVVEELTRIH
T1 sequence (P48729 whole entry): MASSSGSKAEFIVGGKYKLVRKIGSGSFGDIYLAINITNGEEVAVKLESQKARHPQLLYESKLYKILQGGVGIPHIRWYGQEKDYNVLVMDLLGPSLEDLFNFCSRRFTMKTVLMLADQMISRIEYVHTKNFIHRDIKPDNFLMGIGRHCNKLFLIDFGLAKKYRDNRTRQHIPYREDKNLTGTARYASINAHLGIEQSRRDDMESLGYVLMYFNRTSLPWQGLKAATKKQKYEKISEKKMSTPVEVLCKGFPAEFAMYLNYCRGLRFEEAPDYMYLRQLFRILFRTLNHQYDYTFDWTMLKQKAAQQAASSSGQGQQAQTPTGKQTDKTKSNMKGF
T1 sequence (Q96SW2 whole entry): as the sequence (Q96SW2 whole entry) above
T1 sequence (Q16531 whole entry partner): as the sequence (Q16531 whole entry partner) above
T5 sequence (P15170 whole entry): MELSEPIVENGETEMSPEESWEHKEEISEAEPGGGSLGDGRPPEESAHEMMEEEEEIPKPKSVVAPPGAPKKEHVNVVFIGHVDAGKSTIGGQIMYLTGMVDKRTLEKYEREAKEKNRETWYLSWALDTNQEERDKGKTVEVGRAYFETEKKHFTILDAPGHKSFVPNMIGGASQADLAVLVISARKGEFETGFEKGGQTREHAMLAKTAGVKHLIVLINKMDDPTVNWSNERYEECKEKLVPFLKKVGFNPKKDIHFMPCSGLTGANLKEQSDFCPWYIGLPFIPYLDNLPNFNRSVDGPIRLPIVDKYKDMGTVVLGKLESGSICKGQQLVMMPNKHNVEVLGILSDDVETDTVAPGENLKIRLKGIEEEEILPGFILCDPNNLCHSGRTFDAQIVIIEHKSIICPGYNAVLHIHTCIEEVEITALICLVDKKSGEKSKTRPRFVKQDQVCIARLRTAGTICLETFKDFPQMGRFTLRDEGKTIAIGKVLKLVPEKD
T5 sequence (Q96SW2 whole entry): as the sequence (Q96SW2 whole entry) above
T5 sequence (Q16531 whole entry partner): as the sequence (Q16531 whole entry partner) above
T6 sequence (P30291 whole entry): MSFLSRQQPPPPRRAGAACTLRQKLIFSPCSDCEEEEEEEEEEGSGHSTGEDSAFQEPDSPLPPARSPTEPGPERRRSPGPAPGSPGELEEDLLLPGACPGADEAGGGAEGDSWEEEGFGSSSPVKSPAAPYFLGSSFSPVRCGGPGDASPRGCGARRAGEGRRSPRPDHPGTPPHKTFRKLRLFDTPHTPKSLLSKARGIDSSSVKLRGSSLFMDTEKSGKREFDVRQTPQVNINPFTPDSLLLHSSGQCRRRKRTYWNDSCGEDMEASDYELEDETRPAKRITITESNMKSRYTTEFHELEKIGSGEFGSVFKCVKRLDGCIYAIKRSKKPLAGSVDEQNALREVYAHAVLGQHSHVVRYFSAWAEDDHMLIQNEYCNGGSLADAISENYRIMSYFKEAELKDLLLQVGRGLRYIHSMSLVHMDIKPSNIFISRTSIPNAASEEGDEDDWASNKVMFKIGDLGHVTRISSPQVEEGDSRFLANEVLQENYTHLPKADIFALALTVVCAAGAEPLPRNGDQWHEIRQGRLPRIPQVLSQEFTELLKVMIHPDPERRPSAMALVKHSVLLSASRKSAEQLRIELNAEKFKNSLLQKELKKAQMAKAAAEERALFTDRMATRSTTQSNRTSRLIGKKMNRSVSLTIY
T6 sequence (Q96SW2 whole entry): as the sequence (Q96SW2 whole entry) above
T6 sequence (Q16531 whole entry partner): as the sequence (Q16531 whole entry partner) above
T7 sequence (Q96SW2 whole entry): as the sequence (Q96SW2 whole entry) above
T4 sequence (Q9UKS7 whole entry): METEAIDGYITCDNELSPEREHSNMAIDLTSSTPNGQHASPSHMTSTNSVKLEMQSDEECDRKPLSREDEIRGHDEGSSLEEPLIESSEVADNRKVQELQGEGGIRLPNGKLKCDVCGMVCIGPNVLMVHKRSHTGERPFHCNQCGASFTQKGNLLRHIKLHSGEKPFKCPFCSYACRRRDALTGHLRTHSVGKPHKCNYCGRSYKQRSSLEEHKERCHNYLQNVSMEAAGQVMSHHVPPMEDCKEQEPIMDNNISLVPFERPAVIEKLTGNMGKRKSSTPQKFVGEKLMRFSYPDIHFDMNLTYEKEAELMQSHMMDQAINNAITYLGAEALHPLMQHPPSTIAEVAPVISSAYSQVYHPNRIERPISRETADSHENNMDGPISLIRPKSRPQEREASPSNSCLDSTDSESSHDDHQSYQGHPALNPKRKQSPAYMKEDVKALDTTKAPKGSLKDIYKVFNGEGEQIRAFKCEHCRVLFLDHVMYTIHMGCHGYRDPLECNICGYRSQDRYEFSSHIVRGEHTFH
T4 sequence (Q96SW2 whole entry): as the sequence (Q96SW2 whole entry) above
T4 sequence (Q16531 whole entry partner): as the sequence (Q16531 whole entry partner) above

SMILES	Degradation of substrate protein CK1α (substrate protein remaining %) [1]	Degradation of substrate protein IKZF3 (substrate protein remaining %) [2]	Degradation of substrate protein IKZF1 (substrate protein remaining %) [3]	Degradation of substrate protein IKZF2 (substrate protein remaining %) [4]	Degradation of substrate protein GSPT1 (substrate protein remaining %) [5]	Degradation of substrate protein WEE1 (substrate protein remaining %) [6]	IC50 [7] [nM]	Inhibition Rate at 0.5 μM (%) [8]	Inhibition Rate at 2 μM (%) [8]	Degradation of substrate protein EGFR (substrate protein remaining %) [9]
O=C1CCN(N2C(=O)c3ccc(Br)cc3C2=O)C(=O)N1 [GT-04511, 5-bromo-2-(2,4-dioxotetrahydropyrimidin-1(2H)-yl)isoindoline-1,3-dione]	B (80%<substrate protein remaining %≤100%)	B (80%<substrate protein remaining %≤100%)	B (80%<substrate protein remaining %≤100%)	B (80%<substrate protein remaining %≤100%)	A (0%≤substrate protein remaining %≤80%)	B (80%<substrate protein remaining %≤100%)				
O=C1CCN(N2C(=O)c3ccc(CO)cc3C2=O)C(=O)N1 [GT-04536, 2-(2,4-dioxotetrahydropyrimidin-1(2H)-yl)-5-(hydroxymethyl)isoindoline-1,3-dione]	B (80%<substrate protein remaining %≤100%)	B (80%<substrate protein remaining %≤100%)	B (80%<substrate protein remaining %≤100%)	B (80%<substrate protein remaining %≤100%)	A (0%≤substrate protein remaining %≤80%)	B (80%<substrate protein remaining %≤100%)				
O=C1CCN(N2C(=O)c3ccc(N4CCC(N5CCNCC5)C(F)(F)C4)cc3C2=O)C(=O)N1 (centres unmarked) [GT-04990, 5-(3,3-difluoro-4-(piperazin-1-yl)piperidin-1-yl)-2-(2,4-dioxotetrahydropyrimidin-1(2H)-yl)isoindoline-1,3-dione]	B (80%<substrate protein remaining %≤100%)	B (80%<substrate protein remaining %≤100%)	B (80%<substrate protein remaining %≤100%)	B (80%<substrate protein remaining %≤100%)	A (0%≤substrate protein remaining %≤80%)	A (0%≤substrate protein remaining %≤80%)				
O=C1CCN(N2Cc3cc(CN4C[C@@H]5C[C@H]4CN5c4ccc(-c5cc(F)c6c(c5)C(=O)N(C(C(=O)Nc5nccs5)c5ncn7c5CCC7)C6)cc4)ccc3C2=O)C(=O)N1 (stereo partly drawn) [GT-05114, 2-(6,7-dihydro-5H-pyrrolo[1,2-c]imidazol-1-yl)-2-(6-(4-((1S,4S)-5-((2-(2,4-dioxotetrahydropyrimidin-1(2H)-yl)-1-oxoisoindolin-5-yl)methyl)-2,5-diazabicyclo[2.2.1]heptan-2-yl)phenyl)-4-fluoro-1-oxoisoindolin-2-yl)-N-(thiazol-2-yl)acetamide]							100 to 130	a2 (20% < a2 ≤ 30%)	a5 (53% < a5 ≤ 60%)	A (0%≤substrate protein remaining %≤80%)
O=C1CCN(N2Cc3cc(CN4CCN(C5CCN(c6ccc(-c7cc(F)c8c(c7)C(=O)N(C(C(=O)Nc7nccs7)c7ncn9c7CCC9)C8)cc6)CC5)CC4)ccc3C2=O)C(=O)N1 (centres unmarked) [GT-06241, 2-(6,7-dihydro-5H-pyrrolo[1,2-c]imidazol-1-yl)-2-(6-(4-(4-(4-((2-(2,4-dioxotetrahydropyrimidin-1(2H)-yl)-1-oxoisoindolin-5-yl)methyl)piperazin-1-yl)piperidin-1-yl)phenyl)-4-fluoro-1-oxoisoindolin-2-yl)-N-(thiazol-2-yl)acetamide]							10 to 50	a1 (10% < a1 ≤ 20%)	a5 (53% < a5 ≤ 60%)	A (0%≤substrate protein remaining %≤80%)
